Data taken from paper PMC10761696, “Avapritinib-based SAR studies unveil a binding pocket in KIT and PDGFRA” (Nature Communications, 2024).
Several values for one entry are separate records, joined by “and”; a condition that tells them apart may be missing. Identical values can stand only once. Like-named read-outs stand apart in the source and are kept apart here. One block for each compound: values may come before it.

How the values were obtained:
[1] = system: GIST-48B; assay: CellTiter-Glo (CTG) GR50, GIST-48B control cell line (off-target toxicity)
[2] = system: MDR1; assay: MDCKII-MDR1 permeability assay; settings: dog; for recovery at 2 h, 10 µM: MDCKII-MDR1, assay conc. 10
[3] = MDCKII-MDR1 permeability assay; settings: dog; for Papp B→A at 2 h, 10 µM: MDCK-MDR1
[4] = system: GIST-T1; assay: CellTiter-Glo (CTG) GR50, GIST-T1; settings: Homo sapiens, GISTT1, read-out: KIT CTG GR50 GIST-T1, mean ± s.d., n ≥ 3; GR50 half-maximal growth inhibition rate
[5] = system: ZR-75-1; assay: CellTiter-Glo (CTG) EC50, ZR-75-1 breast cancer control cell line; format: cell-based, human; settings: Homo sapiens
Method: (§1) Cell line authenticity was confirmed by STR analysis at Eurofins Genomics. All cell lines were tested regularly for mycoplasma contamination using the Mycoplasmacheck Service at Eurofins Genomics. […] Following incubation for 24 h in a humidified atmosphere at 37 °C and 5% CO2, cells were treated with inhibitors in serial dilutions ranging from 30 µM down to 0.1 nM using an Echo650 acoustic liquid handler (Beckman Coulter). Cell viability was analyzed on day 5 using the CellTiter-Glo® assay (Promega) using 500 ms integration time. The obtained data were normalized to the plate positive control (30 µM staurosporine) and negative control (DMSO) and subsequently analyzed and fitted with the Quattro Software Suite (Quattro Research) using a four-parameter logistic model. As quality control, the Z’-factor was calculated from 16 positive and negative control values. Only assay results showing a Z’-factor ≥0.5 were used for further analysis. All experimental points were measured in duplicates for each plate and were independently replicated in at least three plates.

[6] = biological target: KIT-D816H (Homo sapiens, UniProt P10721, D816H); assay: Activity-based HTRF KinEASE assay, KIT-D816H; format: biochemical
Chain of KIT-D816H (P10721 26-976 D816H): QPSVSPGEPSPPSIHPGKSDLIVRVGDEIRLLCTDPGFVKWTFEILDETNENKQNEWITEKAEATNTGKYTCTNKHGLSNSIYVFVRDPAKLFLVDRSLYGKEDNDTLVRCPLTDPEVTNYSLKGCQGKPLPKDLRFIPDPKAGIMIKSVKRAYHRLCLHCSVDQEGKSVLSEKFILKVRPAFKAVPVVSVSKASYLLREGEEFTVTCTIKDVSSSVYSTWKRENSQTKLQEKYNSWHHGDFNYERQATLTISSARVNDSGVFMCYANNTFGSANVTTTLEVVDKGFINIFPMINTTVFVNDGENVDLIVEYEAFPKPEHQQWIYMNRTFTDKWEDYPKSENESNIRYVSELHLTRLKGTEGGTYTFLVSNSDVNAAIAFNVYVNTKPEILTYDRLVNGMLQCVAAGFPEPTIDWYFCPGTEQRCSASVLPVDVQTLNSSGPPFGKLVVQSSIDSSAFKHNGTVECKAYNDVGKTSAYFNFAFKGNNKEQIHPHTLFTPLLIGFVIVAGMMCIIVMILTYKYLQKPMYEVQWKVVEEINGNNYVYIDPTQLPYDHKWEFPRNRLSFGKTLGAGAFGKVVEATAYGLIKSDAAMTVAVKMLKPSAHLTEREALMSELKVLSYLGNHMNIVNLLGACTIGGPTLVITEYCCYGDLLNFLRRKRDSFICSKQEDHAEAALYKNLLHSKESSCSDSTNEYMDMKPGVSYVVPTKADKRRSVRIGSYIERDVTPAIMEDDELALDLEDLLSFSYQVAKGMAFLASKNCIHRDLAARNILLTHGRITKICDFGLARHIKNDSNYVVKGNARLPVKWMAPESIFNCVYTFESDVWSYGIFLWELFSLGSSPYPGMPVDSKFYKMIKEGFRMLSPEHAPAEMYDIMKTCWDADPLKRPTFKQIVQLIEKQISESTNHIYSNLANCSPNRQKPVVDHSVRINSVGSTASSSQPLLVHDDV

[7] = biological target: T1, PDGFRA-D842V (Homo sapiens, UniProt P16234, D842V); assay: Activity-based HTRF KinEASE assay, PDGFRA-D842V; format: biochemical
T1 construct: purchased Invitrogen PV4203 (lot #2343231B)
T1 sequence (P16234 24-1089 D842V): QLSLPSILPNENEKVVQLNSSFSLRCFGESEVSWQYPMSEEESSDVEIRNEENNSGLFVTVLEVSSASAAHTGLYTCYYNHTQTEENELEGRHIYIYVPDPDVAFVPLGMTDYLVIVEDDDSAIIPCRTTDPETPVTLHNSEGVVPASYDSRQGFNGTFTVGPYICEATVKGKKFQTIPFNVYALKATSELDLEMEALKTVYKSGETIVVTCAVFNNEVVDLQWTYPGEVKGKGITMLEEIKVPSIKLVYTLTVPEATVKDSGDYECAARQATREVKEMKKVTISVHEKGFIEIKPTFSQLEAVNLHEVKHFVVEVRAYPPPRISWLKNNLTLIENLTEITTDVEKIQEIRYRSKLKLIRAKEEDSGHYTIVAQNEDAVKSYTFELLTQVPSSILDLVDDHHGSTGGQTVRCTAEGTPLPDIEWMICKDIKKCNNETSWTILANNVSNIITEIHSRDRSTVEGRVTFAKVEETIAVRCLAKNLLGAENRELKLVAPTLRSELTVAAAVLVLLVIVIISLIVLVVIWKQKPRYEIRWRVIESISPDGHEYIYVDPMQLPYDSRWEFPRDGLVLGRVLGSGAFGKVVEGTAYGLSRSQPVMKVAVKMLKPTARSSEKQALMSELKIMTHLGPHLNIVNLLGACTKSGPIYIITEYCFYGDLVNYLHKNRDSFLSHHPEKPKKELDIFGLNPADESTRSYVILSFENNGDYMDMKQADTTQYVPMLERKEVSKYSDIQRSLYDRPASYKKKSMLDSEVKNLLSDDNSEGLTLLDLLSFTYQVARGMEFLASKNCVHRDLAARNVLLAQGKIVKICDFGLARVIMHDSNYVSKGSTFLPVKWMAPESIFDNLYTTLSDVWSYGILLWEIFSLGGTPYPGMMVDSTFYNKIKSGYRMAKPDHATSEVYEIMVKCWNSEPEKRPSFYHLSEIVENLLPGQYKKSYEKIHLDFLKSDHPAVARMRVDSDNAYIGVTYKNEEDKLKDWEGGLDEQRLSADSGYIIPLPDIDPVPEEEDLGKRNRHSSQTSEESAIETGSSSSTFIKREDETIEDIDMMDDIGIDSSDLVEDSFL

[8] = system: SK-LMS-1; assay: CellTiter-Glo (CTG) GR50, SK-LMS-1 control cell line; settings: for CTG GR50 SK-LMS-1: mean ± s.d., n = 3, control cell line; for CTG GR50 SK-LMS-1, single determinations: raw data of Supp. Tab. 2, independent experiments, unit from Supp. Tab. 2
[9] = system: MDA-MB-175VII; assay: CellTiter-Glo (CTG) EC50, MDA-MB-175VII breast cancer control cell line; format: cell-based, human
Method: as §1

[10] = system: T1-a-D842V; assay: CellTiter-Glo (CTG) GR50, T1-a-D842V; settings: cellular assay
[11] = system: T1-V654A; assay: CellTiter-Glo (CTG) GR50, T1-V654A; settings: Homo sapiens
[12] = system: T1-a-5258; assay: CellTiter-Glo (CTG) GR50, T1-a-5258; settings: Homo sapiens
[13] = system: T1-T670I; assay: CellTiter-Glo (CTG) GR50, T1-T670I; settings: Homo sapiens, read-out: KIT CTG GR50 T1-T670I, mean ± s.d., n ≥ 3
[14] = system: D842V-mutant gastrointestinal stromal tumors (GIST); settings: patients with D842V-mutant GIST; ref NAVIGATOR trial; cited from earlier work
[15] = system: T1-D816E; assay: CellTiter-Glo (CTG) GR50, T1-D816E; settings: mean ± s.d., n ≥ 3
[16] = system: T1-a-G680R; assay: CellTiter-Glo (CTG) GR50, T1-a-G680R; settings: raw data of Table 1, independent experiments; unit from Table 1
[17] = system: MDCKII-MDR1 cells; assay: MDCKII-MDR1 permeability assay; settings: for permeability class of reference compound (Comment): reference compounds of the MDCKII-MDR1 assay
[18] = MDCK-MDR1, MDCKII-MDR1 (Papp A→B), at 10 µM, 2 h, 37 °C, unit inferred
[19] = Homo sapiens, MDA-MB-175-VII, read-out: CTG EC50 MDA-MB-175VII, single determinations, raw data of Supp. Tab. 2, independent experiments, unit from Supp. Tab. 2

efflux ratio at 2 h, 10 µM ([2]; MDCK-MDR1): 0.13 | recovery at 2 h, 10 µM ([2]; MDCK-MDR1, Recovery A->B): 81.4% | recovery at 2 h, 10 µM ([2]; MDCK-MDR1, Recovery B->A): 63.6% | Papp B→A at 2 h, 10 µM [3]: 0.47 ×10⁻⁶ cm/s | Papp A→B at 2 h, 10 µM [3, 18]: 3.5 ×10⁻⁶ cm/s | Papp A→B at 2 h, 10 µM ([3]; MDCK-MDR1, Papp A->B, MDCKII-MDR1, assay conc. 10, apical to basolateral): 3.46 ×10⁻⁶ cm/s | EC50 ([5]; ZR-75-1, mean ± s.d., n = 3, control cell line, read-out: CTG EC50 ZR-75-1): ≥ 10000 nM | EC50 ([5]; ZR-75-1, raw data of Supp. Tab. 2, independent experiments, unit from Supp. Tab. 2, read-out: CTG EC50 ZR-75-1, single determinations): ≥ 10000 nM | IC50 ([6]; mean ± s.d., n ≥ 3, ATP at KM (12 µM), read-out: HTRF IC50 KIT-D816H): 2 ± 0.1 nM | IC50 ([6]; raw data of Table 1, independent experiments, unit from Table 1, read-out: HTRF IC50 KIT-D816H, single determinations): 2.1 nM (2×) and 1.8 nM | IC50 ([7]; mean ± s.d., n ≥ 3, ATP at KM (14 µM), read-out: HTRF IC50 PDGFRA-D842V): ~0.2 nM and 0.2 nM | IC50 ([7]; raw data of Table 1, independent experiments 1-3, unit from Table 1, read-out: HTRF IC50 PDGFRA-D842V, single determinations): 0.2 nM and 0.15 nM and 0.28 nM | EC50 ([9]; Homo sapiens, MDA-MB-175-VII, read-out: CTG EC50 MDA-MB-175VII, mean ± s.d., n = 3, control cell line): ≥ 10000 nM | EC50 [9, 19]: ≥ 10000 nM
SMILES: Cn1cc(-c2cc3c(N4CCN(c5ncc([C@@](C)(NC(=O)c6ccccc6)c6ccc(F)cc6)cn5)CC4)ncnn3c2)cn1 [Compound 13]
activity with respect to the control cell lines ([1]; control cell lines (Table 1, Supplementary Table 2)): completely inactive | ratio GIST-48B/ T1-a-D842V ([1]; ratio of GR50 values): 196 | GIST-48B/D842V ([1]; ratio of GR50 values, source data sheet): 196 | GI50 [4]: 287 ± 176 nM | CTG GR50 SK-LMS-1 [8]: 9.498 ± 0.869 µM and 9.498 µM | CTG GR50 SK-LMS-1, single determinations [8]: 8.494 µM and 10 µM | fold loss of potency compared to avapritinib, T1-a-D842V [10]: 3 fold

SMILES: Cn1cc(-c2cc3c(N4CCN(c5ncc([C@@](C)(N)c6ccc(F)cc6)cn5)CC4)ncnn3c2)cn1 [ava (1), avapritinib]
Papp B→A at 2 h, 10 µM [3]: 3.02 ×10⁻⁶ cm/s | Papp A→B at 2 h, 10 µM [3, 18]: 12.5 ×10⁻⁶ cm/s | GI50 [4]: 36 ± 10 nM | GI50 ([11]; read-out: CTG GR50 T1-V654A, single determinations, raw data of Supp. Tab. 1, independent experiments, unit from Supp. Tab. 1): 256 nM | GI50 ([11]; read-out: KIT CTG GR50 T1-V654A, mean ± s.d., n ≥ 3 (* n = 2 for ava)): 357 ± 142 nM | GI50 ([12]; read-out: CTG GR50 T1-a-5258, single determinations, raw data of Supp. Tab. 1, independent experiments, unit from Supp. Tab. 1): 570 nM | GI50 ([12]; read-out: PDGFRA CTG GR50 T1-a-5258, mean ± s.d., n ≥ 3, triple mutant D842V, G652E, V658A): 540 ± 30 nM | CTG GR50 SK-LMS-1 [8]: 8.423 ± 2.731 µM and 8.423 µM | CTG GR50 SK-LMS-1, single determinations [8]: 5.269 µM and 10 µM | EC50 [9, 19]: 5700 nM | EC50 ([9]; read-out: CTG EC50 MDA-MB-175VII, single determinations, raw data of Supp. Tab. 2, independent experiments, unit from Supp. Tab. 2): 5760 nM and 5880 nM | EC50 ([9]; read-out: CTG EC50 MDA-MB-175VII, mean ± s.d., n = 3, control cell line): 5780 nM | GI50 [13]: 457 ± 240 nM | overall response rates [14]: more than 90% | KIT CTG GR50 T1-D816E [15]: 67 ± 18 nM and 67 nM | CTG GR50 T1-a-G680R, single determinations [16]: 1455 nM and 1460 nM

permeability class of reference compound (Comment) [17]: efflux | Papp B→A at 2 h, 10 µM [3]: 15.4 ± 16 ×10⁻⁶ cm/s | Papp A→B at 2 h, 10 µM ([3]; MDCK-MDR1, MDCKII-MDR1 (PappA→B), reference compounds, mean over routine assay runs): 1.9 ± 4.5 ×10⁻⁶ cm/s
SMILES: C[C@H]1O[C@@H](O[C@H]2[C@@H](O)C[C@H](O[C@H]3[C@@H](O)C[C@H](O[C@H]4CC[C@@]5(C)[C@H](CC[C@@H]6[C@@H]5C[C@@H](O)[C@]5(C)[C@@H](C7=CC(=O)OC7)CC[C@]65O)C4)O[C@@H]3C)O[C@@H]2C)C[C@H](O)[C@@H]1O [digoxin, reference compound]

SMILES: CC(C)NCC(O)COc1cccc2ccccc12 (stereo not shown) [propranolol, reference compound]
permeability class of reference compound (Comment) [17]: highly permeable | permeability class of reference compound (Comment) ([17]; listed as Propanolol): permeable | MDCKII-MDR1 (PappA→B) ([17]; reference compounds, mean over routine assay runs): 32 ± 10.3 10-6 cm/s
